Values of other authors, collected in patent US20030203963A1, “Antimicrobial agent” (priority 2001, published 2003).

Tests used:
Conditions in all cases: cited from earlier work
[1] = system: yeasts and moulds as well as catalase-positive bacteria
[2] = system: Gram-positive bacteria, yeasts, and moulds
[3] = system: aerobic, Gram-negative bacteria
Salmonella = system: Salmonella
bacteria = system: bacteria

C/C=C/C=C/C(=O)O [Sorbic Acid]
Effective concentration [1]: 500-3000 ppm

O=S=O [Sulphur Dioxide]
Effective concentrations [2]: 800-2000 ppm | Effective concentrations for inhibition [3]: 250-500 ppm

O=NO [nitrite]
Concentration at which Salmonella is inhibited (Salmonella; meat products): > 1,000 ppm

Nisin
Inhibition of Salmonella (Salmonella; in food): unable to inhibit

Propionic Acid and Propionate
Concentrations necessary for inhibition of bacteria (bacteria): > 16000 ppm
